Experimental data taken from ChEMBL document CHEMBL1201862, “PubChem BioAssay data set” (2004).
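In this assay, cells in 96-well plates receive the compound at five concentrations for 48 hours. Endpoints are linearly interpolated between the surrounding concentrations. At the GI50, growth is halved.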 Calls of active or inactive are those of the source. No stated cut-off is given here; in the data, active = GI50 up to about 1.1 µM and inactive = higher.

Experiments:
Test in all cases: DTP human tumour cell line panel, 48 h
SF-295 = tested on: SF-295
MOLT-4 = tested on: MOLT-4
NCI-H23 = tested on: NCI-H23
RPMI-8226 = tested on: RPMI-8226
K562 = tested on: K562
LOX IMVI = tested on: LOX IMVI
NCI-H460 = tested on: NCI-H460
SNB-19 = tested on: SNB-19
CAKI-1 = tested on: CAKI-1
OVCAR-3 = tested on: OVCAR-3
SK-MEL-28 = tested on: SK-MEL-28
M14 = tested on: M14
SK-MEL-5 = tested on: SK-MEL-5
HT-29 = tested on: HT-29
A498 = tested on: A498
MCF7 = tested on: MCF7
Hs-578T = tested on: Hs-578T
PC-3 = tested on: PC-3

Row | Structure (SMILES) | GI50 (SF-295) | GI50 (MOLT-4) | GI50 (NCI-H23) | GI50 (RPMI-8226) | GI50 (K562) | GI50 (LOX IMVI) | GI50 (NCI-H460) | GI50 (SNB-19) | GI50 (CAKI-1) | GI50 (OVCAR-3) | GI50 (SK-MEL-28) | GI50 (M14) | GI50 (SK-MEL-5) | GI50 (HT-29) | GI50 (A498) | GI50 (MCF7) | GI50 (Hs-578T) | GI50 (PC-3)
1 | COc1ccccc1NC(=O)C1=C(C)NC(C)=C(C(=O)Nc2ccccc2OC)C1c1ccccc1Cl | > 100 µM (inactive) | 27.2 µM (inactive) | > 100 µM (inactive) | 30.7 µM (inactive) | 32.7 µM (inactive) | > 100 µM (inactive) | 59.3 µM (inactive) | > 100 µM (inactive) | > 100 µM (inactive) | > 100 µM (inactive) | > 100 µM (inactive) | 91 µM (inactive) | 47.8 µM (inactive) | 64.1 µM (inactive) | > 100 µM (inactive) | – | – | –
2 | CC(=O)OC12COC1CC(O)C1(C)C(=O)C(O)C3=C(C)C(O)CC(O)(C(OC(=O)c4ccccc4)C21)C3(C)C (configuration not stated) | 26.3 µM (inactive) | 6.7 µM (inactive) | 3.36 µM (inactive) | 1.25 µM (inactive) | 1.58 µM (inactive) | 1.82 µM (inactive) | 2.92 µM (inactive) | 5.31 µM (inactive) | > 96.2 µM (inactive) | 2.55 µM (inactive) | 3.38 µM (inactive) | 5.94 µM (inactive) | 3.44 µM (inactive) | 1.31 µM (inactive) | > 100 µM (inactive) | 1.68 µM (inactive) | 0.778 µM (active) | 3.03 µM (inactive)
3 | CCN(CC)CCCC(C)Nc1c2ccc(Cl)cc2nc2cc(Cl)ccc12 (configuration not stated) | 3.4 µM (inactive) | 1.98 µM (inactive) | 6.62 µM (inactive) | 2.23 µM (inactive) | 2.21 µM (inactive) | 2.64 µM (inactive) | 3.31 µM (inactive) | 17 µM (inactive) | 3.22 µM (inactive) | 5.71 µM (inactive) | 5.6 µM (inactive) | – | 4.76 µM (inactive) | 2.47 µM (inactive) | 8.67 µM (inactive) | 3.13 µM (inactive) | – | –
4 | CCOC(=O)C1=C(O)C(=O)c2ccccc2C1=O | 96.6 µM (inactive) | > 100 µM (inactive) | 44.3 µM (inactive) | > 100 µM (inactive) | > 100 µM (inactive) | 85.1 µM (inactive) | > 100 µM (inactive) | 40.9 µM (inactive) | > 100 µM (inactive) | > 100 µM (inactive) | > 100 µM (inactive) | > 100 µM (inactive) | 46.5 µM (inactive) | > 100 µM (inactive) | > 100 µM (inactive) | – | – | –
5 | Clc1cccc(N2CCN(CCCN3CCc4c([nH]c5ccccc45)C3c3cccnc3)CC2)c1 (configuration not stated) | 6.92 µM (inactive) | 3.88 µM (inactive) | 10.7 µM (inactive) | 6.15 µM (inactive) | 3.78 µM (inactive) | 8.17 µM (inactive) | 6.22 µM (inactive) | 20.6 µM (inactive) | 9.68 µM (inactive) | 2.67 µM (inactive) | 3.6 µM (inactive) | 2.01 µM (inactive) | 5.32 µM (inactive) | 3.89 µM (inactive) | 10.4 µM (inactive) | – | – | –
6 | O=C1C(c2ccccc2)=C(c2ccccc2)C(c2ccccc2)/C1=C1\C(=O)C(c2ccccc2)=C(c2ccccc2)C1c1ccccc1 (configuration not stated) | > 100 µM (inactive) | > 100 µM (inactive) | > 100 µM (inactive) | > 100 µM (inactive) | – | > 100 µM (inactive) | > 100 µM (inactive) | – | > 100 µM (inactive) | > 100 µM (inactive) | > 100 µM (inactive) | 41.9 µM (inactive) | > 100 µM (inactive) | > 100 µM (inactive) | > 100 µM (inactive) | – | – | –
7 | C/C(=N/NS(=O)(=O)c1c(C)cc(C)cc1C)c1cccc[n+]1[O-] | > 100 µM (inactive) | > 100 µM (inactive) | > 100 µM (inactive) | > 100 µM (inactive) | > 100 µM (inactive) | – | > 100 µM (inactive) | > 100 µM (inactive) | > 100 µM (inactive) | > 100 µM (inactive) | > 100 µM (inactive) | > 100 µM (inactive) | > 100 µM (inactive) | > 100 µM (inactive) | > 100 µM (inactive) | – | – | –
8 | COc1ccc(/N=N/C(C(=O)c2ccccc2)C(=O)c2ccccc2)cc1 | 21.3 µM (inactive) | 14.7 µM (inactive) | 18.3 µM (inactive) | 13.4 µM (inactive) | 19.1 µM (inactive) | 17.8 µM (inactive) | 18.6 µM (inactive) | 17.7 µM (inactive) | 32.5 µM (inactive) | 17.2 µM (inactive) | 26.4 µM (inactive) | 15.3 µM (inactive) | 14.1 µM (inactive) | 23 µM (inactive) | 35.7 µM (inactive) | – | – | –
9 | O=C1C=CC(=O)C12CCc1ccccc12 | > 31.6 µM (inactive) | > 44.3 µM (inactive) | > 100 µM (inactive) | 12.1 µM (inactive) | 36.4 µM (inactive) | > 60.8 µM (inactive) | > 100 µM (inactive) | > 100 µM (inactive) | > 31.6 µM (inactive) | > 100 µM (inactive) | > 100 µM (inactive) | > 100 µM (inactive) | > 100 µM (inactive) | > 95.3 µM (inactive) | > 100 µM (inactive) | – | – | –
10 | Clc1ccc(-c2c(C3=NCCCN3)nnn2-c2ccccc2)cc1 | > 100 µM (inactive) | > 100 µM (inactive) | > 100 µM (inactive) | – | 41.7 µM (inactive) | 24.9 µM (inactive) | 33.6 µM (inactive) | > 100 µM (inactive) | > 100 µM (inactive) | > 100 µM (inactive) | > 100 µM (inactive) | > 100 µM (inactive) | > 100 µM (inactive) | 40.1 µM (inactive) | > 100 µM (inactive) | – | – | –
11 | Cc1ccc(C(=O)N2c3ccccc3N(C)n3cccc3C2CC(=O)O)cc1 (configuration not stated) | > 100 µM (inactive) | > 100 µM (inactive) | > 100 µM (inactive) | > 100 µM (inactive) | > 100 µM (inactive) | > 100 µM (inactive) | > 100 µM (inactive) | > 100 µM (inactive) | > 100 µM (inactive) | > 100 µM (inactive) | > 100 µM (inactive) | > 100 µM (inactive) | > 100 µM (inactive) | > 100 µM (inactive) | > 100 µM (inactive) | – | – | –
12 | C[C@]12CCC(=O)C(O)=C1CCC2=O | > 100 µM (inactive) | > 100 µM (inactive) | – | > 100 µM (inactive) | – | > 100 µM (inactive) | > 100 µM (inactive) | > 100 µM (inactive) | > 100 µM (inactive) | > 100 µM (inactive) | > 100 µM (inactive) | > 100 µM (inactive) | > 100 µM (inactive) | > 100 µM (inactive) | > 100 µM (inactive) | – | – | –
13 | CC(=O)OCCOCNC(=S)N/N=C/c1ccc([N+](=O)[O-])s1 | 40.4 µM (inactive) | 28.8 µM (inactive) | 19 µM (inactive) | 29.1 µM (inactive) | 21.7 µM (inactive) | 33.4 µM (inactive) | 42.4 µM (inactive) | > 100 µM (inactive) | – | 29.3 µM (inactive) | > 100 µM (inactive) | 40 µM (inactive) | 25.7 µM (inactive) | 20.7 µM (inactive) | 86.7 µM (inactive) | – | – | –
14 | CCOC(=O)C1(Br)S(=O)(=O)OCCOS1(=O)=O | > 100 µM (inactive) | > 100 µM (inactive) | > 100 µM (inactive) | > 100 µM (inactive) | > 100 µM (inactive) | > 100 µM (inactive) | > 100 µM (inactive) | > 100 µM (inactive) | – | > 100 µM (inactive) | > 100 µM (inactive) | > 100 µM (inactive) | > 100 µM (inactive) | > 100 µM (inactive) | > 100 µM (inactive) | – | – | –
15 | CCOC(=O)C1=C(Nc2ccc(Cl)cc2Cl)OCC1=O | > 100 µM (inactive) | > 100 µM (inactive) | > 100 µM (inactive) | > 100 µM (inactive) | > 100 µM (inactive) | > 100 µM (inactive) | > 100 µM (inactive) | > 100 µM (inactive) | > 100 µM (inactive) | > 100 µM (inactive) | > 100 µM (inactive) | > 100 µM (inactive) | – | > 100 µM (inactive) | – | – | – | –
16 | CCOC(=N)CC(=O)Nc1cccc(C)c1C | > 100 µM (inactive) | 2.77 µM (inactive) | > 100 µM (inactive) | – | > 10 µM (inactive) | > 100 µM (inactive) | > 100 µM (inactive) | > 100 µM (inactive) | > 100 µM (inactive) | > 100 µM (inactive) | > 100 µM (inactive) | > 100 µM (inactive) | > 100 µM (inactive) | > 100 µM (inactive) | > 100 µM (inactive) | – | – | –
17 | Cc1cccc(C)c1N1C(=O)C(=O)C(c2nc3ccccc3s2)/C(=N/NC(=O)c2ccccc2O)C1=O (configuration not stated) | 33.3 µM (inactive) | 8.89 µM (inactive) | 7.38 µM (inactive) | 12.7 µM (inactive) | 3.8 µM (inactive) | 24.4 µM (inactive) | 17.7 µM (inactive) | 10.7 µM (inactive) | 3.07 µM (inactive) | 18.7 µM (inactive) | 28 µM (inactive) | 10.1 µM (inactive) | 16.2 µM (inactive) | 51.5 µM (inactive) | 28.6 µM (inactive) | – | – | –
18 | CC1CCCC2(O1)OC1CC(=O)OC1C1=C2C(=O)c2ccccc2C1=O (configuration not stated) | 17.6 µM (inactive) | 1.58 µM (inactive) | 5.13 µM (inactive) | 1.22 µM (inactive) | 0.63 µM (active) | 2.64 µM (inactive) | 25.9 µM (inactive) | 15.6 µM (inactive) | 2.84 µM (inactive) | 2.72 µM (inactive) | 2.14 µM (inactive) | 2.79 µM (inactive) | 2.06 µM (inactive) | 2.42 µM (inactive) | 17.7 µM (inactive) | – | – | –
